Reference: patent US11155557B2, “Pyrazolopyrimidine compounds and methods of use thereof” (Genentech, Inc., priority 2016, dated 2021)
Read-outs that look alike come from different tables or passages of the source.

Tests used:
[1] = molecular target: isolated recombinant JAK1 kinase domain (Homo sapiens (Human), UniProt P23458); assay: JAK1 enzyme assay (Caliper LabChip, Ki); assay type: biochemical
Experimental: The activity of the isolated recombinant JAK1 and JAK2 kinase domain was measured by monitoring phosphorylation of a peptide derived from JAK3 ([…] fluorescently labeled on the N-terminus with 5-carboxyfluorescein) using the Caliper LabChip R technology (Caliper Life Sciences, Hopkinton, Mass.).

[2] = molecular target: isolated recombinant JAK2 kinase domain (Homo sapiens (Human), UniProt O60674); assay: JAK2 enzyme assay (Caliper LabChip, Ki); details: read-out: JAK2 Ki
[3] = test system: JAK1-dependent STAT6 phosphorylation in BEAS-2B human bronchial epithelial cells; assay: JAK1 pathway assay: IL-13 stimulated STAT6 phosphorylation in BEAS-2B cells; assay type: cell-based; details: BEAS-2B cells, IL-13 stimulation, read-out: IL-13 p-STAT6 BEAS-2B IC50
Experimental: JAK1 Pathway Assay in Cell Lines was Carried Out as Follows:
Inhibitor potency (EC50) was determined in cell-based assays designed to measure JAK1 dependent STAT phosphorylation.
In one assay approach, TF-1 human erythroleukemia cells obtained from the American Type Culture Collection (ATCC; Manassas, Va.) were used to measure JAK1-dependent STAT6 phosphorylation downstream of IL-13 stimulation. Prior to use in the assays, TF-1 cells were starved of GM-CSF overnight in OptiMEM medium (Life Technologies, Grand Island, N.Y.) supplemented with 0.5% charcoal/dextran stripped fetal bovine serum (FBS), 0.1 mM non-essential amino acids (NEAA), and 1 mM sodium pyruvate. The assays were run in 384-well plates in serum-free OptiMEM medium using 300,000 cells per well. In a second assay approach, BEAS-2B human bronchial epithelial cells obtained from ATCC were plated at 100,000 cells per well of a 96-well plate one day prior to the experiment. The BEAS-2B assay was run in complete growth medium (bronchial epithelial basal medium plus bulletkit; Lonza; Basel, Switzerland).
Test compounds were serially diluted 1:2 in DMSO and then diluted 1:50 in medium just before use. Diluted compounds were added to the cells, for a final DMSO concentration of 0.2%, and incubated for 30 min (for the TF-1 assay) or 1 hr (for the BEAS-2B assay) at 37° C. Then, cells were stimulated with human recombinant cytokine at their respective EC90 concentrations, as previously determined for each individual lot. Cells were stimulated with IL-13 (R&D Systems, Minneapolis, Minn.) for 15 min at 37° C. […] The resultant samples were frozen in the plates at −80° C. Compound mediated inhibition of STAT6 phosphorylation was measured in the cell lysates using MesoScale Discovery (MSD) technology (Gaithersburg, Md.).

Sequence of isolated recombinant JAK2 kinase domain (O60674 849-1124): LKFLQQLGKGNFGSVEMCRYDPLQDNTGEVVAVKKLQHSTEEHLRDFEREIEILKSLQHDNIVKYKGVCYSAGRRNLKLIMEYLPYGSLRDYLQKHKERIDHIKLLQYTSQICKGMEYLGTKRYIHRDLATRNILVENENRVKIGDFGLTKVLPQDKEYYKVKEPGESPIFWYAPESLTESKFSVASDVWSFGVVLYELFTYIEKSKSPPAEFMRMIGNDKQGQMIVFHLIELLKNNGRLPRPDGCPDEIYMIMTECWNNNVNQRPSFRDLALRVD
Sequence of isolated recombinant JAK1 kinase domain (P23458 875-1153): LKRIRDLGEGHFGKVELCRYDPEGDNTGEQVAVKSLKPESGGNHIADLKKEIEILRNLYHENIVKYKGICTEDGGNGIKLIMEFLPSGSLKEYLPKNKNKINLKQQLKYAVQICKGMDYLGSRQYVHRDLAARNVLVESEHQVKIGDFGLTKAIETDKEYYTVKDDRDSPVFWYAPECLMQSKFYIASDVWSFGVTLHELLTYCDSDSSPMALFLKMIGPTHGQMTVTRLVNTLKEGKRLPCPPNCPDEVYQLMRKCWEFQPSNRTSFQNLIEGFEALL

Row | Compound | Ki [1] [nM] | Ki [2] [nM] | Ki ([1]; formic acid) [nM] | Ki ([2]; formic acid) [nM] | IC50 [3] [nM] | IC50 ([3]; Homo sapiens, BEAS-2B) [nM] | IC50 ([3]; formic acid) [nM]
1 | CC1CNc2cc(OC(F)F)c(-c3nn(CC(=O)N(C)C)cc3NC(=O)c3cnn4cccnc34)cc2S1 (single isomer, unassigned) [Example 106, N-[3-[6-(difluoromethoxy)-2-methyl-3,4-dihydro-2H-1,4-benzothiazin-7-yl]-1-[2-(dimethylamino)-2-oxo-ethyl]pyrazol-4-yl]pyrazolo[1,5-a]pyrimidine-3-carboxamide] | 0.17 | 0.19 | – | – | 27 | – | –
2 | CC1CSc2cc(-c3nn(CC(=O)N4CCCCC4)cc3NC(=O)c3cnn4cccnc34)c(OC(F)F)cc2N1 (single isomer, unassigned) [Example 107, N-[3-[6-(difluoromethoxy)-3-methyl-3,4-dihydro-2H-1,4-benzothiazin-7-yl]-1-[2-oxo-2-(1-piperidyl)ethyl]pyrazol-4-yl]pyrazolo[1,5-a]pyrimidine-3-carboxamide] | 0.2 | 0.23 | – | – | – | 11 | –
3 | CC1CSc2cc(-c3nn(CC(=O)N4CCCCC4)cc3NC(=O)c3cnn4cccnc34)c(OC(F)F)cc2N1 (single isomer, unassigned) [Example 108, N-[3-[6-(difluoromethoxy)-3-methyl-3,4-dihydro-2H-1,4-benzothiazin-7-yl]-1-[2-oxo-2-(1-piperidyl)ethyl]pyrazol-4-yl]pyrazolo[1,5-a]pyrimidine-3-carboxamide] | 0.19 | 0.23 | – | – | 12 | – | –
4 | CC1CSc2cc(-c3nn(CC(=O)N4CC=CCC4)cc3NC(=O)c3cnn4cccnc34)c(OC(F)F)cc2N1 (single isomer, unassigned) [Example 111, N-[3-[6-(difluoromethoxy)-3-methyl-3,4-dihydro-2H-1,4-benzothiazin-7-yl]-1-[2-(3,6-dihydro-2H-pyridin-1-yl)-2-oxo-ethyl]pyrazol-4-yl]pyrazolo[1,5-a]pyrimidine-3-carboxamide] | 0.2 | 0.21 | – | – | – | 15 | –
5 | CC1CSc2cc(-c3nn(CC(=O)N(C)C)cc3NC(=O)c3cnn4cccnc34)c(OC(F)F)cc2N1 (single isomer, unassigned) [Example 113, N-[3-[6-(difluoromethoxy)-3-methyl-3,4-dihydro-2H-1,4-benzothiazin-7-yl]-1-[2-(dimethylamino)-2-oxo-ethyl]pyrazol-4-yl]pyrazolo[1,5-a]pyrimidine-3-carboxamide] | 0.22 | 0.27 | – | – | – | 22 | –
6 | CN1CCC(n2cc(NC(=O)c3cnn4cccnc34)c(-c3cc4c(cc3OC(F)F)NCCS4)n2)C1=O (single isomer, unassigned) [Example 126, N-[3-[6-(difluoromethoxy)-3,4-dihydro-2H-1,4-benzothiazin-7-yl]-1-(1-methyl-2-oxo-pyrrolidin-3-yl)pyrazol-4-yl]pyrazolo[1,5-a]pyrimidine-3-carboxamide] | 0.88 | 0.43 | – | – | 286 | – | –
7 | O=C(Nc1cn(C2CCOC2=O)nc1-c1cc2c(cc1OC(F)F)NCCS2)c1cnn2cccnc12 (single isomer, unassigned) [Example 141, N-[3-[6-(difluoromethoxy)-3,4-dihydro-2H-1,4-benzothiazin-7-yl]-1-(2-oxotetrahydrofuran-3-yl)pyrazol-4-yl]pyrazolo[1,5-a]pyrimidine-3-carboxamide] | 0.17 | 0.09 | – | – | – | 11 | –
8 | O=C(Nc1cn(C2CCOC2=O)nc1-c1cc2c(cc1OC(F)F)NCCO2)c1cnn2cccnc12 (single isomer, unassigned) [Example 145, N-[3-[6-(difluoromethoxy)-3,4-dihydro-2H-1,4-benzoxazin-7-yl]-1-(2-oxotetrahydrofuran-3-yl)pyrazol-4-yl]pyrazolo[1,5-a]pyrimidine-3-carboxamide] | 0.6 | 0.42 | – | – | 36 | – | –
9 | O=C(Nc1cn(CC(=O)N2CCC(CN3CCOCC3)CC2)nc1-c1cc2ccccc2cc1OC(F)F)c1cnn2cccnc12 [Example 3, N-(3-(3-(difluoromethoxy)naphthalen-2-yl)-1-(2-(4-(morpholinomethyl)piperidin-1-yl)-2-oxoethyl)-1H-pyrazol-4-yl)pyrazolo[1,5-a]pyrimidine-3-carboxamide] | 0.38 | 0.97 | – | – | – | 8 | –
10 | COC(=O)c1cc2cc(OC(F)F)c(-c3n[nH]cc3NC(=O)c3cnn4cccnc34)cc2s1 [Example 7, Methyl 5-(difluoromethoxy)-6-(4-(pyrazolo[1,5-a]pyrimidine-3-carboxamido)-1H-pyrazol-3-yl)benzo[b]thiophene-2-carboxylate] | 0.17 | 0.11 | – | – | – | 6 | –

Continued, in another order:

Row | Ki [1] [nM] | Ki [2] [nM] | Ki ([1]; formic acid) [nM] | Ki ([2]; formic acid) [nM] | Compound | IC50 [3] [nM] | IC50 ([3]; Homo sapiens, BEAS-2B) [nM] | IC50 ([3]; formic acid) [nM]
11 | 0.15 | 0.18 | – | – | CC1CSc2cc(-c3nn(CC(=O)N4CC=CCC4)cc3NC(=O)c3cnn4cccnc34)c(OC(F)F)cc2N1 (single isomer, unassigned) [Example 112, N-[3-[6-(difluoromethoxy)-3-methyl-3,4-dihydro-2H-1,4-benzothiazin-7-yl]-1-[2-(3,6-dihydro-2H-pyridin-1-yl)-2-oxo-ethyl]pyrazol-4-yl]pyrazolo[1,5-a]pyrimidine-3-carboxamide] | 10 | – | –
12 | 0.21 | 0.24 | – | – | CC1CSc2cc(-c3nn(CC(=O)N(C)C)cc3NC(=O)c3cnn4cccnc34)c(OC(F)F)cc2N1 (single isomer, unassigned) [Example 114, N-[3-[6-(difluoromethoxy)-3-methyl-3,4-dihydro-2H-1,4-benzothiazin-7-yl]-1-[2-(dimethylamino)-2-oxo-ethyl]pyrazol-4-yl]pyrazolo[1,5-a]pyrimidine-3-carboxamide] | 15 | – | –
13 | 0.15 | 0.11 | – | – | CN1CCC(n2cc(NC(=O)c3cnn4cccnc34)c(-c3cc4c(cc3OC(F)F)NCCS4)n2)C1=O (single isomer, unassigned) [Example 125, N-[3-[6-(difluoromethoxy)-3,4-dihydro-2H-1,4-benzothiazin-7-yl]-1-(1-methyl-2-oxo-pyrrolidin-3-yl)pyrazol-4-yl]pyrazolo[1,5-a]pyrimidine-3-carboxamide] | 81 | – | –
14 | 0.09 | 0.06 | – | – | O=C(Nc1cn(C2CCOC2=O)nc1-c1cc2c(cc1OC(F)F)NCCS2)c1cnn2cccnc12 (single isomer, unassigned) [Example 142, N-[3-[6-(difluoromethoxy)-3,4-dihydro-2H-1,4-benzothiazin-7-yl]-1-(2-oxotetrahydrofuran-3-yl)pyrazol-4-yl]pyrazolo[1,5-a]pyrimidine-3-carboxamide] | 15 | – | –
15 | – | – | 0.32 | 0.29 | O=C(Nc1cn(C2CCOC2=O)nc1-c1cc2c(cc1OC(F)F)NCCO2)c1cnn2cccnc12 (single isomer, unassigned) [Example 146, N-[3-[6-(difluoromethoxy)-3,4-dihydro-2H-1,4-benzoxazin-7-yl]-1-(2-oxotetrahydrofuran-3-yl)pyrazol-4-yl]pyrazolo[1,5-a]pyrimidine-3-carboxamide; formic acid] | – | – | 74
16 | 0.31 | 0.14 | – | – | O=C(Nc1c[nH]nc1-c1cc2ccccc2cc1OC(F)F)c1cnn2cccnc12 [Example 1, N-(3-(3-(difluoromethoxy)naphthalen-2-yl)-1H-pyrazol-4-yl)pyrazolo[1,5-a]pyrimidine-3-carboxamide] | – | 6 | –
17 | 0.22 | 0.12 | – | – | Cn1cc(NC(=O)c2cnn3cccnc23)c(-c2cc3ccccc3cc2OC(F)F)n1 [Example 4, N-(3-(3-(difluoromethoxy)naphthalen-2-yl)-1-methyl-1H-pyrazol-4-yl)pyrazolo[1,5-a]pyrimidine-3-carboxamide] | – | 22 | –
18 | 0.2 | 0.31 | – | – | O=C(Nc1cn(CC(=O)N2CCCCC2)nc1-c1cc2c(cc1OC(F)F)NCCO2)c1cnn2cccnc12 [Example 6, N-[3-[6-(difluoromethoxy)-3,4-dihydro-2H-1,4-benzoxazin-7-yl]-1-[2-oxo-2-(piperidin-1-yl)ethyl]-1H-pyrazol-4-yl]pyrazolo[1,5-a]pyrimidine-3-carboxamide] | – | 17 | –
19 | 0.32 | 0.29 | – | – | COC(=O)Cn1cc(NC(=O)c2cnn3cccnc23)c(-c2cc3sccc3cc2OC(F)F)n1 [Example 8, Methyl 2-(3-(5-(difluoromethoxy)benzo[b]thiophen-6-yl)-4-(pyrazolo[1,5-a]pyrimidine-3-carboxamido)-1H-pyrazol-1-yl)acetate] | – | 10 | –
